Twelve molecules from ChEMBL document CHEMBL1201862, “PubChem BioAssay data set” (2004) can be followed below.

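These data come from cells grown in 96-well plates and exposed to compound for 48 hours at five concentrations. GI50 = concentration required for 50% inhibition of growth.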 Calls of active or inactive are those of the source. Rule as the data show it: active = GI50 up to about 1.1 µM and inactive = higher.

Assay in all cases: growth of human tumour cells (NCI), 48 h
Assay [1] relates to A498.
Assay [2] has as its system EKVX.
Assay [3] deals with HCT-15.
Assay [4] relates to HOP-62.
Assay [5] deals with HT-29.
Assay [6] deals with IGROV-1.
The test system of assay [7] is NCI-H23.
Assay [8] concerns NCI-H522.
In assay [9] the test system is OVCAR-4.
Assay [10] has as its system OVCAR-8.
In assay [11] the test system is RPMI-8226.
Assay [12] relates to SK-MEL-28.
For assay [13], the system named is SK-MEL-5.
In assay [14] the test system is SN12C.
The subject of assay [15] is UACC-62.
Assay [16] deals with UO-31.
For assay [17], the system named is SK-OV-3.
The subject of assay [18] is SNB-75.

For the molecule `COc1ccc2nccc(C3OC(=O)N4CCC(=O)CC34)c2c1` (stereo unspecified), the GI50 was > 100 µM (inactive) in assay [1]; > 100 µM (inactive) in [2]; above 100 µM in assay [3]; > 100 µM (inactive) in assay [4]; > 100 µM (inactive) in assay [5]; > 100 µM (inactive) in [6]. For the same molecule, the GI50 was > 100 µM (inactive) in assay [7]; 6.84 µM (inactive) in assay [8]; > 100 µM (inactive) in assay [9]; > 100 µM (inactive) in [10]; > 100 µM (inactive) in assay [11]; > 100 µM (inactive) in assay [12]. Besides, the GI50 in assay [13], in assay [14], in assay [15] and in [16] was > 100 µM (inactive) in each case.
For the molecule `CCOC(=O)C1S/C(=N\c2ccc(OC)c(OC)c2)N=C1C` (stereo unspecified), the GI50 in assay [1] was 52.7 µM (inactive); in assay [2], 94.8 µM (inactive); in [3] it was 28.6 µM; in [4] it was 92 µM (inactive); in [5] it was 18.8 µM (inactive); in [6] it was 56.6 µM (inactive). In addition, the GI50 in assay [7] is 27.7 µM (inactive); in assay [8], 17 µM (inactive); in [9] it was 40.2 µM (inactive); in assay [10], 36.6 µM (inactive); in [12] it was 30.6 µM (inactive); in [13], 18.4 µM (inactive). Also, the GI50 in [17] was 62.7 µM (inactive); in assay [14], 44.1 µM (inactive); in [18], 24.5 µM (inactive); in [15], 26.3 µM (inactive); in [16], 34.6 µM (inactive).
As for `CC12CC(Sc3ccccc3N1)c1ccccc1O2` (stereo unspecified), the GI50 in [1] was 18.5 µM (inactive); in assay [2], 18.6 µM (inactive); in assay [3], 15.6 µM; in assay [4], 19.6 µM (inactive); in assay [5] it was 19.7 µM (inactive); in assay [6], 21.9 µM (inactive). Further, the GI50 in [7] was 15.7 µM (inactive); in assay [9], 17 µM (inactive); in assay [10], 17.9 µM (inactive); in assay [11], 13.6 µM (inactive); in assay [12], 16.7 µM (inactive); in assay [13], 14.8 µM (inactive). Also, the GI50 was 33.7 µM (inactive) in assay [17]; 18.8 µM (inactive) in assay [14]; 28.2 µM (inactive) in assay [18]; 17 µM (inactive) in assay [15]; 14.1 µM (inactive) in assay [16].
For the molecule `O=C(O)COc1ccc2c3c1C(=O)CCC3CO2` (stereo unspecified), the GI50 in [1] was > 100 µM (inactive); in [2] it was > 100 µM (inactive); in [3], above 100 µM; in assay [4], > 100 µM (inactive); in [5], > 100 µM (inactive); in [6], > 100 µM (inactive). Besides, the GI50 in assay [7], in assay [8], in assay [9], in assay [10], in [11] and in assay [12] was > 100 µM (inactive) each time. Further, the GI50 in [13], in [17], in assay [14], in [15] and in [16] was > 100 µM (inactive) each time.
Turning to `CC[P+](C)(C)CC`, the GI50 in assay [2] was > 100 µM (inactive); in [3], above 100 µM; in assay [4], > 100 µM (inactive); in [5] it was > 100 µM (inactive); in assay [6] it was > 100 µM (inactive); in assay [7], > 100 µM (inactive). Also, the GI50 in assay [9], in [10], in assay [11], in assay [12], in assay [13] and in [17] was > 100 µM (inactive) each time. Further, the GI50 in assay [14], in [18], in [15] and in [16] was > 100 µM (inactive) throughout.
Take `O=C1/C=C(/c2ccc(O)cc2)[C@@H](OC2OC(CO)C(O)C(O)C2O)Cc2ccc(O)cc2O1.O=C1/C=C(/c2ccc(O)cc2)[C@H](O)Cc2ccc(O[C@@H]3OC(CO)C(O)C(O)C3O)cc2O1` (stereo partly specified): the GI50 in [1] was > 100 µM (inactive); in [2], > 100 µM (inactive); in assay [3] it was above 100 µM; in assay [4] it was > 100 µM (inactive); in assay [5], > 100 µM (inactive); in [6] it was > 100 µM (inactive). The GI50 was > 100 µM (inactive) in [7]; > 100 µM (inactive) in assay [8]; > 100 µM (inactive) in [9]; > 100 µM (inactive) in [10]; 25.2 µM (inactive) in assay [11]; > 100 µM (inactive) in assay [13]. The GI50 in [17], in assay [14], in assay [15] and in assay [16] was > 100 µM (inactive) each time.
As to `Nc1nc(CCC(=O)Nc2cccc(C(F)(F)F)c2)cc(-c2cccc3ccccc23)n1`, the GI50 in assay [1] is > 100 µM (inactive); in [2], > 100 µM (inactive); in assay [3], above 100 µM; in [4] it was > 100 µM (inactive); in [5], > 100 µM (inactive); in assay [6] it was > 100 µM (inactive). Besides, the GI50 in assay [7], in assay [8], in [9], in [10], in assay [12] and in assay [13] was > 100 µM (inactive) each time. Also, the GI50 in assay [17], in assay [14], in assay [18], in assay [15] and in [16] was > 100 µM (inactive) throughout.
`CC1=C(C(=O)Nc2ccccc2C)C(/C=C/c2ccccc2)C(C(=O)Nc2ccccc2C)=C(C)N1`: the GI50 in assay [1] is 37.8 µM (inactive); in assay [2] it was > 100 µM (inactive); in [3], above 100 µM; in [4], > 100 µM (inactive); in assay [5] it was > 100 µM (inactive); in [6], > 100 µM (inactive). For the same molecule, the GI50 in [7] is > 100 µM (inactive); in assay [8] it was 67.1 µM (inactive); in assay [9], 96.4 µM (inactive); in [10] it was > 100 µM (inactive); in assay [12], > 100 µM (inactive); in [13], > 100 µM (inactive). For the same molecule, the GI50 in assay [17] is > 100 µM (inactive); in assay [14], > 100 µM (inactive); in assay [18] it was 33.5 µM (inactive); in assay [15], > 100 µM (inactive); in assay [16], 34.8 µM (inactive).
In the case of `C[C@H](NC(=O)n1c2ccccc2c2ccccc21)C(=O)O`, the GI50 in assay [2] is > 100 µM (inactive); in assay [3], above 100 µM; in assay [4], > 100 µM (inactive); in [5] it was > 100 µM (inactive); in assay [6] it was > 100 µM (inactive); in assay [7], > 100 µM (inactive). Further, the GI50 in [8], in assay [10], in assay [11], in [12], in [13] and in [17] was > 100 µM (inactive) in each case. Also, the GI50 in assay [14] and in [15] was > 100 µM (inactive) in each case.
For the molecule `CCOC(=O)C(=O)Nc1ccccc1C(F)(F)F`, the GI50 in assay [1] is > 100 µM (inactive); in [2] it was > 100 µM (inactive); in assay [3], above 100 µM; in [4], > 100 µM (inactive); in [5], > 100 µM (inactive); in assay [6] it was > 100 µM (inactive). In addition, the GI50 in assay [7], in [9], in assay [10], in [11], in assay [12] and in assay [17] was > 100 µM (inactive) in each case. Besides, the GI50 in assay [14] was > 100 µM (inactive); in assay [18] it was 79.4 µM (inactive); in [15] it was > 100 µM (inactive); in assay [16], > 100 µM (inactive).
For the molecule `CC(C)=C1CCC(CN2CCCC2)C1=O` (stereo unspecified), the GI50 in assay [1] is > 100 µM (inactive); in assay [2], > 100 µM (inactive); in [3], 18.5 µM; in assay [4], > 100 µM (inactive); in assay [5], 22.8 µM (inactive); in assay [6], 75.2 µM (inactive). The GI50 in assay [7] was > 100 µM (inactive); in assay [9], 17.1 µM (inactive); in assay [10], > 100 µM (inactive); in assay [11], 11.8 µM (inactive); in assay [12], 26.7 µM (inactive); in [13], > 100 µM (inactive). In addition, the GI50 in [14] was 17.6 µM (inactive); in assay [18], 55.2 µM (inactive); in assay [15], > 100 µM (inactive); in assay [16], 20.8 µM (inactive).
With `O=C(C(=O)c1ccc(Cc2ccc(C(=O)C(=O)c3ccccc3)cc2)cc1)c1ccccc1`, the GI50 in [1] was > 100 µM (inactive); in [2], > 100 µM (inactive); in assay [3], above 100 µM; in assay [4], > 100 µM (inactive); in assay [5], > 100 µM (inactive); in assay [6] it was > 100 µM (inactive). The GI50 in assay [7], in assay [8], in [9], in assay [10], in [12] and in [13] was > 100 µM (inactive) throughout. The GI50 in [17], in assay [14], in assay [18], in assay [15] and in assay [16] was > 100 µM (inactive) throughout.
